Data reported in US10168342B2, “Lipid probes and uses thereof” (THE SCRIPPS RESEARCH INSTITUTE, priority 2015, dated 2019).
Where two headings read alike, the source gives them in different places.

Columns and labels:
[1] = target: AEA-DA lipid probe targets in Neuro2a cells (Mus musculus, UniProt P47867)
[2] = target: AEA-DA lipid probe targets in Neuro2a cells (Mus musculus, UniProt Q8VDQ1)
[3] = target: T1, AEA-DA lipid probe targets in Neuro2a cells (Mus musculus, UniProt P54071)
T1 sequence (P54071 40-452): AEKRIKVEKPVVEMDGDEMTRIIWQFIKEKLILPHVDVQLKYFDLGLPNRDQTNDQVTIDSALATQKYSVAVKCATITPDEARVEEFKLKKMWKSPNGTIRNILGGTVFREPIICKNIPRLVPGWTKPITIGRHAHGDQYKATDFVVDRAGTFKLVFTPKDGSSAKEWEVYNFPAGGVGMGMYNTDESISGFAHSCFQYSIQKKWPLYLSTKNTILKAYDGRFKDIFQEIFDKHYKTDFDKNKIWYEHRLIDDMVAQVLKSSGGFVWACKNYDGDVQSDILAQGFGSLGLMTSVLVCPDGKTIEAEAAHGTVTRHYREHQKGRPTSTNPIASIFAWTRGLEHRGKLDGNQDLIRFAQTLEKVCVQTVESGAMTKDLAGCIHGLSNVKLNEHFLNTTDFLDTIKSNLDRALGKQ

[4] = target: T2, AEA-DA lipid probe targets in Neuro2a cells (Mus musculus, UniProt Q8BIJ6); conditions: protein Iars2, Neuro2a cells
T2 sequence (Q8BIJ6 49-1012): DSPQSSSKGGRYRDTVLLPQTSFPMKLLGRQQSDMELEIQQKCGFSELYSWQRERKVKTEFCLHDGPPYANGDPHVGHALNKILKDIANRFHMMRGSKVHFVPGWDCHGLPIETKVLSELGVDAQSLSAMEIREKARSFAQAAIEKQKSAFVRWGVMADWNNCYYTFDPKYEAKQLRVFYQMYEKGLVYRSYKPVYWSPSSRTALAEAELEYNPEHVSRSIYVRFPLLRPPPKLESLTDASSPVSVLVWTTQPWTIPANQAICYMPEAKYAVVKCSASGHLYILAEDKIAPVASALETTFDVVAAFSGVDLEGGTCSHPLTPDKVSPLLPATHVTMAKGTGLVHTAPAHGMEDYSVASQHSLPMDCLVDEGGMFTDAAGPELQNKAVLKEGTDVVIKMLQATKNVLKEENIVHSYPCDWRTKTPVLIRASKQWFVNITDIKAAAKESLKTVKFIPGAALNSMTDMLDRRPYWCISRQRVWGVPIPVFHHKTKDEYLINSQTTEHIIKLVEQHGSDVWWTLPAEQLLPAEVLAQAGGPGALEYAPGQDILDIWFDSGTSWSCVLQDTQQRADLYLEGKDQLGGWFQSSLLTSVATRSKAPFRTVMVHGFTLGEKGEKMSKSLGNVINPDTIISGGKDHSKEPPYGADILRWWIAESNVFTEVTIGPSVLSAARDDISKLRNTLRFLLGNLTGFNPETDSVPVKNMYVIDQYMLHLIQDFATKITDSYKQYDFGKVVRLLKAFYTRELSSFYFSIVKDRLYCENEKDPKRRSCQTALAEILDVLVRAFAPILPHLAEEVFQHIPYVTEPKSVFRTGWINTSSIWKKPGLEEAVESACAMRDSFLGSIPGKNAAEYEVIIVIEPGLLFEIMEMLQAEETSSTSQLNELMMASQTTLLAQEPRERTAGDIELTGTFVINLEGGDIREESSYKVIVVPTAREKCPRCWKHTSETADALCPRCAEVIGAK

[5] = target: T3, AEA-DA lipid probe targets in Neuro2a cells (Mus musculus, UniProt Q9Z2Z6)
T3 sequence (Q9Z2Z6 1-301): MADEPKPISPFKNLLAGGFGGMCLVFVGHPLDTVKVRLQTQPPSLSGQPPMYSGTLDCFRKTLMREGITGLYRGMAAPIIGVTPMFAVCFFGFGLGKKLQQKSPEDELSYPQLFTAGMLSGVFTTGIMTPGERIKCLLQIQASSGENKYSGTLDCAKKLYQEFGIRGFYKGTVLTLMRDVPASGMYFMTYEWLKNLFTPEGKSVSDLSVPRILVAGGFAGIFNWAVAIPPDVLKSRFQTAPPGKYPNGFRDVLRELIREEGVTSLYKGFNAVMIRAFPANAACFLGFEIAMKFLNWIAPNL

[6] = target: T4, AEA-DA lipid probe targets in Neuro2a cells (Mus musculus, UniProt P21995)
T4 sequence (P21995 34-330): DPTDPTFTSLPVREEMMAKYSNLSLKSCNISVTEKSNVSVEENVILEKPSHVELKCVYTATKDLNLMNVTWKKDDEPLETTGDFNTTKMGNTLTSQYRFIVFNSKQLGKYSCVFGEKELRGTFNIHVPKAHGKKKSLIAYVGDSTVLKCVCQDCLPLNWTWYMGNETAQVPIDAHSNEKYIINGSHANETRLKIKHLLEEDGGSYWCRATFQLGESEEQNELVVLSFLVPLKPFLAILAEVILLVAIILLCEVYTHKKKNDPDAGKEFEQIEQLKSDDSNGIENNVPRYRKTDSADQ

[7] = target: T5, AEA-DA lipid probe targets in Neuro2a cells (Mus musculus, UniProt Q8BGC4)
T5 sequence (Q8BGC4 1-377): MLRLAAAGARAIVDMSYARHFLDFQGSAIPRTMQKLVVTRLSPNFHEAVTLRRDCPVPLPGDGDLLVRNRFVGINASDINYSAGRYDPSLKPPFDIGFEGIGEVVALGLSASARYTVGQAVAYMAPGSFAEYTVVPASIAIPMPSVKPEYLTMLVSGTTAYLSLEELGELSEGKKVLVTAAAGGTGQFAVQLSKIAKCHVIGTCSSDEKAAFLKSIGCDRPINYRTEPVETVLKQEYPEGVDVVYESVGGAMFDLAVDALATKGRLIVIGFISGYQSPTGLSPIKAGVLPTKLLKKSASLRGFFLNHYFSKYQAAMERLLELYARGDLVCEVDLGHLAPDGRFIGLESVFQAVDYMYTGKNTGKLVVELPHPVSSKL

[8] = target: AEA-DA lipid probe targets in Neuro2a cells (Mus musculus, UniProt Q8BK63)
AEA-DA lipid probe targets in Neuro2a cells (Mus musculus, UniProt Q8BK63), sequence (Q8BK63 whole entry): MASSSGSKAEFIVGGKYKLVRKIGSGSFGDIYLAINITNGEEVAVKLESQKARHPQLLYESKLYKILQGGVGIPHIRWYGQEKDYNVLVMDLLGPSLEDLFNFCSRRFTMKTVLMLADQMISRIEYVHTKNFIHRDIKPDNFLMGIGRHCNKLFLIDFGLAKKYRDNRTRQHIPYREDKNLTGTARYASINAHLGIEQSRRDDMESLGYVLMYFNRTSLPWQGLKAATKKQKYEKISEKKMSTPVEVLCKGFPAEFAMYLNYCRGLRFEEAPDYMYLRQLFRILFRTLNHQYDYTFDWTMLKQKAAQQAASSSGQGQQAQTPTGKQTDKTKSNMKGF

AEA-DA lipid probe targets in Neuro2a cells (Mus musculus, UniProt P47867), sequence (P47867 23-471): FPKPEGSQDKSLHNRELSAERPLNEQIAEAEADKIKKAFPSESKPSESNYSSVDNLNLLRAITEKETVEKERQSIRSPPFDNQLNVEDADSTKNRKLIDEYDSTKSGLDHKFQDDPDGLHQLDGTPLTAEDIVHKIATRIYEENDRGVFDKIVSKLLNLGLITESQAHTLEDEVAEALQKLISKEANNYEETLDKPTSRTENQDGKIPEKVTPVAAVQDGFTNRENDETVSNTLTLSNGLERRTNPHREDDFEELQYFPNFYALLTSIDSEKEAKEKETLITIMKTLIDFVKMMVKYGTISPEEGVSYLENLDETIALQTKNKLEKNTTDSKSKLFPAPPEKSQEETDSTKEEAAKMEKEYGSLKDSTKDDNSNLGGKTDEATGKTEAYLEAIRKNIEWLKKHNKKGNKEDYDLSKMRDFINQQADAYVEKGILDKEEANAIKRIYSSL
AEA-DA lipid probe targets in Neuro2a cells (Mus musculus, UniProt Q8VDQ1), sequence (Q8VDQ1 whole entry): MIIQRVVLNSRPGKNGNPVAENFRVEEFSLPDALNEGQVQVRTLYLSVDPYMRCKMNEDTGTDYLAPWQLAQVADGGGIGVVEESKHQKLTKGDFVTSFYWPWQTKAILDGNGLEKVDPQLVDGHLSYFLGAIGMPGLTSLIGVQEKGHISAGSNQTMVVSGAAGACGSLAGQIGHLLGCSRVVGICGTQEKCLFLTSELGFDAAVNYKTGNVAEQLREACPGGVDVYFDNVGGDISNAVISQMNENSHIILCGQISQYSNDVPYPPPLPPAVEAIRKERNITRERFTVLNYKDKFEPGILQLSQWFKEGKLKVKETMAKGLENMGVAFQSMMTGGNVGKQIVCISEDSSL

CCCCC/C=C\C/C=C\C/C=C\C/C=C\CCCC(=O)NCCO [AEA, anandamide, reference compound]
SILAC ratio, Scg3 ([1]; competitor 200 μM): 1.2 | SILAC ratio, Ptgr2 ([2]; competitor 200 μM): 8.7 | SILAC ratio Idh2 ([3]; competitor 200 μM): 1.2 | SILAC ratio (AEA-DA competition) ([4]; competitor 200 μM): 0.9 | SILAC ratio Slc25a20 ([5]; competitor 200 μM): 1.6 | SILAC ratio, Emb ([6]; competitor 200 μM): 1.8 | SILAC ratio, Zadh2 ([7]; competitor 200 μM): 4.8

O=C(/C=C/c1cccnc1)NCCCCC1CCN(C(=O)c2ccccc2)CC1 [FK-866, reference compound]
SILAC ratio, Scg3 ([1]; competitor 25 μM): 1.0 | SILAC ratio, Ptgr2 ([2]; competitor 25 μM): 5.2 | SILAC ratio Csnk1a1 ([8]; competitor 25 μM): 1.5 | SILAC ratio Idh2 ([3]; competitor 25 μM): 1.2 | SILAC ratio Slc25a20 ([5]; competitor 25 μM): 1.4 | SILAC ratio, Emb ([6]; competitor 25 μM): 1.3 | SILAC ratio, Zadh2 ([7]; competitor 25 μM): 12.6

CN1CCN(C(=O)c2c(-c3ccccc3)c3cc([N+](=O)[O-])ccc3n2C)CC1 [KML110, (1-Methyl-5-nitro-3-phenyl-1H-indol-2-yl)(4-methylpiperazin-1-yl)methanone]
SILAC ratio, Scg3 ([1]; competitor 25 μM): 1.0 | SILAC ratio, Ptgr2 ([2]; competitor 25 μM): 1.5 | SILAC ratio Csnk1a1 ([8]; competitor 25 μM): 1.5 | SILAC ratio Idh2 ([3]; competitor 25 μM): 1.3 | SILAC ratio Slc25a20 ([5]; competitor 25 μM): 1.5 | SILAC ratio, Emb ([6]; competitor 25 μM): 1.8 | SILAC ratio, Zadh2 ([7]; competitor 25 μM): 1.5

CN1CCN(C(=O)c2[nH]c3ccc([N+](=O)[O-])cc3c2-c2ccccc2)CC1 [MJN228, (4-Methylpiperazin-1-yl)(5-nitro-3-phenyl-1H-indol-2-yl)methanone]
SILAC ratio, Scg3 ([1]; competitor 10 μM): 1.0 | SILAC ratio, Scg3 ([1]; competitor 25 μM): 1.3 | SILAC ratio, Scg3 ([1]; competitor 50 μM): 1.0 | SILAC ratio, Scg3 ([1]; competitor 100 μM): 0.8 | SILAC ratio, Ptgr2 ([2]; competitor 10 μM): 1.2 | SILAC ratio, Ptgr2 ([2]; competitor 25 μM): 1.2 | SILAC ratio, Ptgr2 ([2]; competitor 50 μM): 1.0 | SILAC ratio, Ptgr2 ([2]; competitor 100 μM): 1.5 | SILAC ratio Csnk1a1 ([8]; competitor 25 μM): 1.4 | SILAC ratio Csnk1a1 ([8]; competitor 100 μM): 1.3 | SILAC ratio Idh2 ([3]; competitor 10 μM): 1.3 | SILAC ratio Idh2 ([3]; competitor 25 μM): 1.4 | SILAC ratio Idh2 ([3]; competitor 50 μM): 1.6 | SILAC ratio Idh2 ([3]; competitor 100 μM): 1.6 | SILAC ratio (AEA-DA competition) ([4]; competitor 10 μM): 0.8 | SILAC ratio (AEA-DA competition) ([4]; competitor 25 μM): 1.0 | SILAC ratio (AEA-DA competition) ([4]; competitor 50 μM): 0.7 | SILAC ratio Slc25a20 ([5]; competitor 10 μM): 1.4 | SILAC ratio Slc25a20 ([5]; competitor 25 μM): 1.4 | SILAC ratio Slc25a20 ([5]; competitor 50 μM): 2.4 | SILAC ratio Slc25a20 ([5]; competitor 100 μM): 3.4 | SILAC ratio, Emb ([6]; competitor 10 μM): 1.3 | SILAC ratio, Emb ([6]; competitor 25 μM): 1.7 | SILAC ratio, Emb ([6]; competitor 50 μM): 1.4 | SILAC ratio, Emb ([6]; competitor 100 μM): 2.2 | SILAC ratio, Zadh2 ([7]; competitor 10 μM): 1.4 | SILAC ratio, Zadh2 ([7]; competitor 25 μM): 1.5 | SILAC ratio, Zadh2 ([7]; competitor 50 μM): 2.3 | SILAC ratio, Zadh2 ([7]; competitor 100 μM): 6.0

C=CCN(C)CCCCCCOc1ccc(C(=O)c2ccc(Br)cc2)c(F)c1 [Ro 48-8071, reference compound]
SILAC ratio, Scg3 ([1]; competitor 25 μM): 0.9 | SILAC ratio, Ptgr2 ([2]; competitor 25 μM): 1.1 | SILAC ratio Csnk1a1 ([8]; competitor 25 μM): 0.9 | SILAC ratio Idh2 ([3]; competitor 25 μM): 0.9 | SILAC ratio (AEA-DA competition) ([4]; competitor 25 μM): 0.7 | SILAC ratio Slc25a20 ([5]; competitor 25 μM): 1.2 | SILAC ratio, Emb ([6]; competitor 25 μM): 1.1 | SILAC ratio, Zadh2 ([7]; competitor 25 μM): 1.0
